In US10597388B2, “Pyridazinone herbicides” (FMC CORPORATION, priority 2014, dated 2020):

Experiments:
Type in all cases: in vivo
[1] = test system: barnyardgrass (Echinochloa crus-galli); experiment: Test A greenhouse herbicide test, pre- and postemergence
Summary of the method: (§1)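 Seeds sown in loam–sand blend got a preemergence directed soil spray of compound in non-phytotoxic solvent with surfactant. Postemergence treatment was given at 2–10 cm, one- to two-leaf stage. After ~10 d in greenhouse, injury was rated visually vs untreated controls, 0 (no effect) to 100 (complete control).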

kochia (Kochia scoparia) [2] = experiment: as above
Summary of the method: as §1

[3] = test system: pigweed (Amaranthus retroflexus); experiment: as above
Summary of the method: as §1

[4] = test system: ragweed (common ragweed, Ambrosia elatior); experiment: as above
Summary of the method: as §1

[5] = test system: barnyardgrass (Echinochloa crus-galli); experiment: Test B flooded paddy test; conditions: 250 g ai/ha, Flood; visual rating on scale of 0 to 100 where 0 is no effect and 100 is complete control; 13 to 15 d after treatment
Summary of the method: (§2)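 Plants at the 2-leaf stage were flooded to 3 cm above soil, and test compounds were applied directly into the paddy water, which was held at that depth throughout. After 13 to 15 d in a greenhouse, injury was rated visually against untreated controls on a 0–100 scale (0 no effect, 100 complete control).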

[6] = test system: ducksalad (Heteranthera limosa); experiment: Test B flooded paddy test; conditions: 250 g ai/ha, Flood; visual rating on scale of 0 to 100 where 0 is no effect and 100 is complete control; 13 to 15 d after treatment
Summary of the method: as §2

rice (Oryza sativa) = experiment: Test B flooded paddy test; conditions: 250 g ai/ha, Flood; visual rating on scale of 0 to 100 where 0 is no effect and 100 is complete control; 13 to 15 d after treatment
Summary of the method: as §2

[7] = test system: sedge, umbrella (small-flower umbrella sedge, Cyperus difformis); experiment: Test B flooded paddy test; conditions: 250 g ai/ha, Flood; visual rating on scale of 0 to 100 where 0 is no effect and 100 is complete control; 13 to 15 d after treatment
Summary of the method: as §2

[8] = test system: chickweed (common chickweed, Stellaria media); experiment: Test C greenhouse herbicide test, postemergence
Summary of the method: (§3)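 Greenhouse postemergence spray on plants 2–18 cm tall; response judged visually after 13–15 d relative to untreated controls using a 0 (none) to 100 (full control) scale.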

kochia (Kochia scoparia) [9] = experiment: Test C greenhouse herbicide test, postemergence
Summary of the method: as §3

[10] = test system: oat, wild (wild oat, Avena fatua); experiment: Test C greenhouse herbicide test, postemergence
Summary of the method: as §3

[11] = Postemergence, 125 g ai/ha, visual rating after approx. 10 d, 0 to 100 scale (0 no effect, 100 complete control)
[12] = Postemergence, 500 g ai/ha, 0 to 100 scale, 0 is no effect, 100 is complete control
[13] = Preemergence, 125 g ai/ha, 0 to 100 scale where 0 is no effect and 100 is complete control
[14] = Preemergence, 500 g ai/ha, 0 to 100 scale, 0 no effect, 100 complete control
[15] = Postemergence, 31 g ai/ha, 0 to 100 scale (0 no effect, 100 complete control)
[16] = Postemergence, 125 g ai/ha, scale 0 to 100, 0 is no effect, 100 is complete control
[17] = Postemergence, 250 g ai/ha, scale 0 to 100, 0 no effect, 100 complete control, 13 to 15 d
[18] = postemergence, 62 g ai/ha, scale 0 to 100, 0 no effect, 100 complete control
[19] = Postemergence, 125 g ai/ha, 0 to 100 scale where 0 is no effect and 100 is complete control
[20] = Preemergence, 500 g ai/ha, 0 to 100 scale where 0 is no effect and 100 is complete control
[21] = Postemergence, 500 g ai/ha, visual rating after approx. 10 d, 0 to 100 scale (0 no effect, 100 complete control)
[22] = Postemergence, 31 g ai/ha, scale 0 to 100 (0 no effect, 100 complete control)

Compound | Barnyardgrass plant response rating [1, 12] | Barnyardgrass plant response rating [1, 13] | Plant response rating, Barnyardgrass [1, 14] | Kochia plant response rating (kochia (Kochia scoparia) [2]; [12]) | Kochia plant response rating (kochia (Kochia scoparia) [2]; [13]) | Plant response rating, Kochia (kochia (Kochia scoparia) [2]; [14]) | Pigweed plant response rating [3, 12] | Pigweed plant response rating [3, 13] | Ragweed plant response rating [4, 13] | Plant response rating, Barnyardgrass [5] | Plant response rating, Ducksalad [6] | Plant response rating, Rice (rice (Oryza sativa)) | Plant response rating, Sedge, Umbrella [7] | Plant response rating, Chickweed [8, 16] | Plant response rating, Chickweed [8, 17] | Chickweed plant response rating [8, 18] | Plant response rating, Kochia (kochia (Kochia scoparia) [9]; [16]) | Plant response rating, Kochia (kochia (Kochia scoparia) [9]; [17]) | Plant response rating, Oat, Wild [10, 16] | Plant response rating, Oat, Wild [10, 17] | also measured
Cc1ccc2ccccc2c1-c1c(O)c(I)nn(C)c1=O [Compound 29] | 80 | 70 | 90 | 90 | 60 | 100 | 100 | 100 | 90 | 0 | 55 | 0 | 60 | 100 | 100 | 95 | 75 | 85 | 85 | 95 | Plant response rating, Barnyardgrass [1, 11]: 70; Plant response rating, Kochia (kochia (Kochia scoparia) [2]; [11]): 80; Plant response rating, Pigweed [3, 11]: 90; Plant response rating, Pigweed [3, 14]: 100; Plant response rating, Ragweed [4, 11]: 90; Ragweed plant response rating [4, 12]: 100; Plant response rating, Ragweed [4, 14]: 90; Chickweed plant response rating [8, 15]: 95; Kochia plant response rating (kochia (Kochia scoparia) [9]; [15]): 60; Kochia plant response rating (kochia (Kochia scoparia) [9]; [18]): 60; Oat, Wild plant response rating [10, 15]: 60; Oat, Wild plant response rating [10, 18]: 55
Cn1nc(Br)c(O)c(-c2cccc3ccccc23)c1=O [Compound 20] | 100 | 30 | 90 | 100 | 80 | 100 | 100 | 80 | 30 | 0 | 50 | 0 | 50 | 100 | 100 | 98 | 90 | 100 | 25 | 40 | Plant response rating, Barnyardgrass [1, 11]: 30; Plant response rating, Kochia (kochia (Kochia scoparia) [2]; [11]): 90; Plant response rating, Pigweed [3, 11]: 100; Plant response rating, Pigweed [3, 14]: 100; Plant response rating, Ragweed [4, 11]: 80; Ragweed plant response rating [4, 12]: 100; Plant response rating, Ragweed [4, 14]: 90; Chickweed plant response rating [8, 15]: 90; Kochia plant response rating (kochia (Kochia scoparia) [9]; [15]): 50; Kochia plant response rating (kochia (Kochia scoparia) [9]; [18]): 80; Oat, Wild plant response rating [10, 15]: 0; Oat, Wild plant response rating [10, 18]: 5
Cc1ccc2ccccc2c1-c1c(O)c(C(F)(F)F)nn(C)c1=O [Compound 102] | 90 | 40 | – | – | 10 | – | – | 80 | 90 | 0 | 0 | 0 | 50 | 95 | 98 | 95 | 20 | 50 | 10 | 25 | Plant response rating, Barnyardgrass [1, 19]: 40; Plant response rating, Barnyardgrass [1, 20]: 60; Plant response rating, Kochia (kochia (Kochia scoparia) [2]; [19]): 20; Plant response rating, Kochia (kochia (Kochia scoparia) [2]; [21]): 40; Plant response rating, Kochia (kochia (Kochia scoparia) [2]; [20]): 30; Plant response rating, Pigweed [3, 19]: 90; Plant response rating, Pigweed [3, 21]: 90; Plant response rating, Pigweed [3, 20]: 100; Plant response rating, Ragweed [4, 19]: 100; Plant response rating, Ragweed [4, 21]: 100; Plant response rating, Ragweed [4, 20]: 90; Plant response rating, Chickweed [8, 22]: 95; Plant response rating, Kochia (kochia (Kochia scoparia) [9]; [22]): 0; Plant response rating, Oat, Wild [10, 22]: 5
Cc1nn(C)c(=O)c(-c2ccc(F)c3ccccc23)c1O [Compound 41] | 90 | 20 | 90 | 100 | 90 | 100 | 90 | 100 | 80 | 30 | 40 | 0 | 40 | 90 | 100 | 95 | 100 | 100 | 90 | 95 | Plant response rating, Barnyardgrass [1, 19]: 30; Plant response rating, Kochia (kochia (Kochia scoparia) [2]; [19]): 100; Plant response rating, Pigweed [3, 19]: 60; Plant response rating, Pigweed [3, 14]: 100; Plant response rating, Ragweed [4, 19]: 70; Ragweed plant response rating [4, 12]: 100; Plant response rating, Ragweed [4, 14]: 90; Chickweed plant response rating [8, 15]: 95; Kochia plant response rating (kochia (Kochia scoparia) [9]; [15]): 100; Kochia plant response rating (kochia (Kochia scoparia) [9]; [18]): 100; Oat, Wild plant response rating [10, 15]: 55; Oat, Wild plant response rating [10, 18]: 90
